Entries after “also recorded” stand apart in the source; their conditions may differ. Peptide text beside a SMILES is read from it. * marks the point of attachment. AMC = Cc1cc(=O)oc2cc(N*)ccc12; Bz = O=C(c1ccccc1)*
Columns and labels:
thrombin [1] = target: T1, thrombin (Homo sapiens, UniProt P00734); test: Detection of thrombin in solution with fluorescent substrates; format: biochemical
T1 construct: purchased EVICEL® fibrin sealant kit product code 3905
Experimental: 1. 2 mL of 0, 10 IU/mL and 100 IU/mL thrombin in saline (none, low, and high thrombin) was prepared in duplicates and tubes were labeled accordingly. Stock of EVICEL® thrombin is about 1000 IU/mL.
2. A defined amount of thrombin substrate was added to thrombin solutions as follows and fluorescence of the mixture was evaluated. The substrate stock solutions were diluted 1:10 in Tris Buffered saline (TBS) buffer (180 uL TBS and 20 uL of stock substrate solution). TBS buffer comprises 20 mM Tris and 150 mM sodium chloride, and is adjusted to pH 7.4. 0.05 mL of the diluted stock solution (1:10 dilution) was added to the 2 mL of thrombin prepared in step 1, mixed at room temperature, and incubated for about 3 mins.
3. Images of tubes were captured while shining with light (using various light emitting sources) and responses were compared for different amounts of thrombin.

thrombin [2] = target: T1, thrombin; test: Detection of thrombin in solution, repeated with higher amounts of substrate; format: biochemical; set-up: key to fluorescence signal, relative rank: +++: strongest fluorescence signal; ++: signal was greater; +: fluorescence signal was lowest; conditions: 100 uL at 5 mg/mL in DMSO [500 ug total substrate], 100 IU/mL thrombin, approx. 5 min
Experimental: 100 IU/mL of thrombin was used.
To 1.0 mL of 100 IU/mL thrombin in saline, 100 uL of Sigma substrate at 5 mg/mL in DMSO was added [500 ug total substrate].
To 1.0 mL of 100 IU/mL thrombin in saline, 100 uL of HTI substrate diluted in TBS at 0.25 mg/mL (50 uL HTI manufacture's stock and 1.5 mL TBS, i.e. 1:30 dilution) was added [25 ug total substrate].
To 1.0 mL of 100 IU/mL thrombin in saline, 10 uL of HTI manufacture's stock (7.5 mg/mL in DMSO) was added [75 ug total substrate]
Images of tubes were captured under various lighting conditions (using various light sources) and responses were compared.
The experiments were carried out at room temperature.

thrombin [3] = target: T1, thrombin; test: Detection of thrombin on a surface (cellulose matrix) with fluorogenic substrates; format: biochemical; conditions: approx. 60 min after spraying; 365 nm flashlight only; after moving the matrix out of its original position
Experimental: 2 mL solutions of 0, 10 IU/mL and 100 IU/mL thrombin in saline (none, and low and high thrombin) were prepared using a stock solution of EVICEL® thrombin of about 1000 IU/mL. 1 mL of each thrombin dilution was sprayed onto white cellulose matrix (paper towel Scott C-Fold) in a designated area.
Immediately a defined amount of thrombin substrate, prepared as follows, was sprayed on the thrombin and coated cellulose matrix and fluorescence of the mixture was evaluated. The substrate stock solutions were diluted 1:10 in TBS (using 900 uL TBS and 100 uL of stock substrate solution). 1.0 mL of the diluted stock solution (1:10 dilution) was sprayed across all three regions of the cellulose matrix coated with thrombin at different levels.
Images of cellulose matrix under various lighting conditions (with various light sources) were captured and the response was compared for different amounts of thrombin and substrates. The Experiments were carried out at room temperature.

thrombin [4] = target: T1, thrombin; test: Detection of thrombin generated in plasma with fluorogenic substrates; format: biochemical
Experimental: (§1) Pooled normal plasma (PNP) was purchased from George King Biomedical was thawed at 37 C for 5 min. 0.5 mL of PNP was aliquoted into 3-10×75 mm borosilicate glass tubes. To each to glass tube, 0.10 mL stock fluorescent substrate or 0.10 mL stock TBS was added. Tubes were labeled accordingly.
(§2) 1.0 mL of PT reagent (Diagnostica Stago, STA Neoplastine Cl Plus containing calcium) was dispensed into the three tubes.
Images of tubes were captured while using shining light (using various light sources) and response was compared for different substrates.

pooled normal plasma = test: Clotting of pooled normal plasma with PT reagent in presence of substrate; format: biochemical; conditions: 0.5 mL PNP + 0.10 mL stock (5 mg/mL in DMSO) + 1.0 mL PT reagent; room temperature
Experimental: as §1, §2
The blank/TBS control clotted in approx. 10 sec (as expected for a PT clotting time).

thrombin [5] = test: In vivo detection of thrombin at bleeding site, canine model with liver and spleen abrasions
Experimental: In this in vivo study, the ability to detect thrombin on a surface in a live animal after creating a bleeding defect was assessed in a canine model with liver and spleen abrasions.
Diffuse/oozing bleeding abrasion defect was created using cautery tip cleaning pad.
0.5 mL of Sigma fluorogenic substrate (Stock solution 5 mg/mL concentration in DMSO protected from light) was sprayed onto bleeding site and visualized with flashlight (356 nm) 2-3 min after application.

thrombin [6] = target: T1, thrombin; test: Detection of thrombin activity on chromogenic substrate coated onto cellulose matrix; format: biochemical; conditions: 1 mL of 2 mg/mL substrate sprayed on matrix; EVICEL thrombin applied; 30 sec at room temperature; dihydrochloride
Experimental: S-2238 chromogenic thrombin substrate ((H-D-Phenylalanyl-L-pipecolyl-L-arginine-p-nitroaniline dihydrochloride) which is available from Chromgenix, Instrumentation Laboratory Company, Bedford, Mass., USA catalog number: 82032439), 25 mg, was dissolved in 12.5 mL of water. The resulting concentration was 2 mg/mL (25 mg in 12.5 mL). 1 mL of 2 mg/mL of the chromogenic substrate was sprayed onto one side of a white cellulose matrix (paper towel Scott C-Fold) approx. 4 in×6 cm in using the EVICEL® ASA tip (product code 3921S). The other side was not coated or sprayed with the substrate.
A kit of EVICEL® (product code 3905) was thawed in a 37° C. water bath for 5 min. […] This was repeated on the substrate coated side and also applied in duplicate on the non-substrate coated side.
As a control, thrombin was applied to the non-coated side of the matrix and no color changed was observed.

thrombin [7] = target: T1, thrombin; test: Thrombin activity on chromogenic substrate in solution (dip stick standard tubes); format: biochemical; conditions: 0.2 mL of 2 mg/mL substrate + 1.8 mL water, about 2 min at room temperature
Experimental: A “dip stick” can be dabbed onto a tissue surface that is suspected of bleeding (FIG. 2). The end of the dip stick can then be placed into a solution containing the visualization agent (chromogenic substrate). The amount of the thrombin present in the dip stick is determined by comparison with a standard curve obtained by running similar tests with known thrombin concentrations.
For example, 0.2 mL of the 2 mg/mL chromogenic substrate was combined with 1.8 mL of water in a […] in 2 borosilicate glass tubes. The solution was gently mixed to distribute the substrate. A third tube was filled with 2 mL of water as an untreated control. To one of the tubes with the diluted substrate, 100 uL of 1000 IU/mL thrombin was added and 10 uL was added to the other tube. After about 2 min at room temperature, a photo was captured of the tubes.
The tube with water is shown as a reference. The intensity of the color change reflected the amount of thrombin.

thrombin [8] = target: T1, thrombin; test: Detection of chromogenic substrate product in plasma activated by thromboplastin reagent; format: biochemical; conditions: 0.4 mL PNP + 0.2 mL thromboplastin reagent with calcium + 0.2 mL of 2 mg/mL substrate; room temperature
Experimental: Plasma has a background color (straw color). To test whether the product of the chromogenic substrate can be detected in plasma, 0.4 mL pooled normal plasma (PNP from George King Biomedical) was activated by a thromboplastin reagent (0.2 mL, Neoplastin CL plus product number 00375) with calcium to allow thrombin generation.
Either 0.2 mL saline (as a control) or 0.2 mL of 2 mg/mL of the chromogenic substrate was added to the tube and mixed on the tube rocker.
Evidence of clot formation was present after approx. 30 sec at room temperature. In view of the presence of fibrinogen in plasma, complete clot formation, i.e. solid/stable clot, occurred at approx. 2 min at room temperature.

time within which all of the substrate was cleaved (thrombin [1]; 100 IU/mL thrombin, no change in intensity between 3 min and 60 min) [min] | fluorescence (thrombin [1]; approx. 3 min, ambient overhead lighting and 365 nm flashlight, 100 IU/mL thrombin) | color change (thrombin [1]; approx. 3 min, ambient overhead lighting only, thrombin 100, 10 and 0 IU/mL) | fluorescence (thrombin [1]; approx. 60 min, 365 nm flashlight only, 100 IU/mL thrombin) | fluorescence signal, relative rank (thrombin [2]; 365 nm flashlight only) | fluorescence signal (thrombin [2]; ambient overhead lighting and 365 nm flashlight) | fluorescence on the surface underneath the cellulose matrix (thrombin [3]) | color change in plasma (thrombin [4]; 5 min after combining PNP, substrate and PT reagent, ambient overhead lighting only) | fluorescence signal in plasma (thrombin [4]; approx. 5 min, 365 nm flashlight only, 0.10 mL stock (Sigma 5 mg/mL in DMSO; HTI 0.25 mg/mL in TBS)) | fluorescence in plasma (thrombin [4]; approx. 5 min, ambient overhead lighting and 365 nm flashlight, 0.10 mL stock (Sigma 5 mg/mL in DMSO)) | SMILES | time sample remained fluid before clotting (pooled normal plasma) | fluorescence signal at bleeding site (thrombin [5]; 0.5 mL of 5 mg/mL in DMSO sprayed onto bleeding site, flashlight (356 nm) 2-3 min after application, no exogenous thrombin added) | detection of bleeding in a liver abrasion model (thrombin [5]; canine, sprayed onto bleeding site) | coloration on substrate coated side of cellulose matrix (thrombin [6]) | coloration of tube (thrombin [7]; 10 uL of 1000 IU/mL thrombin) | coloration of tube (thrombin [7]; 100 uL of 1000 IU/mL thrombin) | yellow coloration/hue of clotted plasma compared with the saline control (thrombin [8])
≤ 3 | displaying fluorescence | no color change observed | displaying fluorescence | +++ | strongest | spots of fluorescence could be seen | no color change was observed | strong fluorescence signal | strong fluorescence | Cc1cc(=O)oc2cc(NC(=O)[C@H](CCCN=C(N)N)NC(=O)[C@@H](NC(=O)[C@H](Cc3ccccc3)NC(=O)c3ccccc3)C(C)C)ccc12 [Sigma substrate] (Bz-Phe-Val-Arg-{AMC}) | approx. 3 min | could be detected | enabled detection of bleeding |  |  |  | 
 |  |  |  |  |  |  |  |  |  | Cl.Cl.NC(N)=NCCC[C@H](NC(=O)[C@@H]1CCCCN1C(=O)[C@H](N)Cc1ccccc1)C(=O)Nc1ccc([N+](=O)[O-])cc1 [S-2238, H-D-Phenylalanyl-L-pipecolyl-L-arginine-p-nitroaniline dihydrochloride] |  |  |  | yellow coloration (dark streaks) was evident; also recorded: change in coloration was evident | faint yellow coloration | yellow coloration | significantly stronger

Source: patent US20220193272A1, “Bleeding Detection Method” (Ethicon, Inc., priority 2020, published 2022)
